# Values of other authors in PubChem BioAssay AID1259409 (Chemical Carcinogenesis Research Information System (CCRIS), 2018).
# System: rodent chemically induced tumor inhibition, incidence and multiplicity
# Experiment: CCRIS tumor inhibitor studies
# Conditions: Route [Inhibitor]: ORAL, Species: RAT, Strain/Sex: F344/MALE; for outcome: Dose [Carcinogen]: 0.1% IN DRINKING WATER FOR 1 WK (STUDY DURATION: 32 WK)
smiles,measurement,setting,value
COc1cc(/C=C/C(=O)O[C@H]2CC[C@]34C[C@]35CC[C@]3(C)[C@@H]([C@H](C)CCC=C(C)C)CC[C@@]3(C)[C@@H]5CC[C@H]4C2(C)C)ccc1O,outcome,"Carcinogen: 2,2'-DIHYDROXY-DI-N-PROPYLNITROSAMINE [621-64-7], Dose [Inhibitor]: 0.04% IN DIET FOR 30 WK BEGINNING 1 WK POST LAST CARCINOGEN DOSE (STUDY DURATION: 32 WK), Target Tissue: Type of Lesion: LUNG: CARCINOMA, Promoter: NONE","0/20 (0%), 0/20 (0%), 0%, not significant"
same,outcome,"Carcinogen: 2,2'-DIHYDROXY-DI-N-PROPYLNITROSAMINE [621-64-7], Dose [Inhibitor]: 0.2% IN DIET FOR 30 WK BEGINNING 1 WK POST LAST CARCINOGEN DOSE (STUDY DURATION: 32 WK), Target Tissue: Type of Lesion: LUNG: CARCINOMA, Promoter: NONE","0/20 (0%), 2/20 (10%), -100%, not significant"
same,outcome,"Carcinogen: 2,2'-DIHYDROXY-DI-N-PROPYLNITROSAMINE [621-64-7], Dose [Inhibitor]: 1% IN DIET FOR 30 WK BEGINNING 1 WK POST LAST CARCINOGEN DOSE (STUDY DURATION: 32 WK), Target Tissue: Type of Lesion: LUNG: CARCINOMA, Promoter: NONE","0/20 (0%), 10/20 (50%), -100%, p<0.001"
same,"tumour outcome (control, treated, inhibition, significance)","Carcinogen: 2,2'-DIHYDROXY-DI-N-PROPYLNITROSAMINE [621-64-7], N-ETHYL-N-HYDROXYETHYLNIATROSAMINE [13147-25-6], 3,2'-DIMETHYL-4-AMINO, Carcinogen: 2,2'-DIHYDROXY-DI-N-PROPYLNITROSAMINE [621-64-7], N-ETHYL-N-HYDROXYETHYLNIATROSAMINE [13147-25-6], 3,2'-DIMETHYL-4-AMINO, Dose [Inhibitor]: 1% IN DIET FOR 32 WK BEGINNING 1 WK POST LAST CARCINOGEN DOSE (STUDY DURATION: 32 WK), Target Tissue: Type of Lesion: LIVER: ADENOMA, Dose [Carcinogen]: 1000 MG/KG BW DHPN IP 2X/3 WK, 1500 MG/KG BW EHEN IP 2X/3 WK, 75 MG/KG BW DMAB SC 3X/3 WK;, Dose [Carcinogen]: 1000 MG/KG BW DHPN IP 2X/3 WK, 1500 MG/KG BW EHEN IP 2X/3 WK, 75 MG/KG BW DMAB SC 3X/3 WK;, Promoter: NONE","9/14 (64%), 5/13 (38%), 41%, p<0.05"
same,"tumour outcome (control, treated, inhibition, significance)","Carcinogen: 2,2'-DIHYDROXY-DI-N-PROPYLNITROSAMINE [621-64-7], N-ETHYL-N-HYDROXYETHYLNIATROSAMINE [13147-25-6], 3,2'-DIMETHYL-4-AMINO, Carcinogen: 2,2'-DIHYDROXY-DI-N-PROPYLNITROSAMINE [621-64-7], N-ETHYL-N-HYDROXYETHYLNIATROSAMINE [13147-25-6], 3,2'-DIMETHYL-4-AMINO, Dose [Inhibitor]: 1% IN DIET FOR 32 WK BEGINNING 1 WK POST LAST CARCINOGEN DOSE (STUDY DURATION: 32 WK), Target Tissue: Type of Lesion: LIVER: CARCINOMA, Dose [Carcinogen]: 1000 MG/KG BW DHPN IP 2X/3 WK, 1500 MG/KG BW EHEN IP 2X/3 WK, 75 MG/KG BW DMAB SC 3X/3 WK;, Dose [Carcinogen]: 1000 MG/KG BW DHPN IP 2X/3 WK, 1500 MG/KG BW EHEN IP 2X/3 WK, 75 MG/KG BW DMAB SC 3X/3 WK;, Promoter: NONE","6/14 (43%), 3/13 (23%), 47%, not significant"
same,"tumour outcome (control, treated, inhibition, significance)","Carcinogen: 2,2'-DIHYDROXY-DI-N-PROPYLNITROSAMINE [621-64-7], N-ETHYL-N-HYDROXYETHYLNIATROSAMINE [13147-25-6], 3,2'-DIMETHYL-4-AMINO, Carcinogen: 2,2'-DIHYDROXY-DI-N-PROPYLNITROSAMINE [621-64-7], N-ETHYL-N-HYDROXYETHYLNIATROSAMINE [13147-25-6], 3,2'-DIMETHYL-4-AMINO, Dose [Inhibitor]: 1% IN DIET FOR 32 WK BEGINNING 1 WK POST LAST CARCINOGEN DOSE (STUDY DURATION: 32 WK), Target Tissue: Type of Lesion: LUNG: ADENOMA, Dose [Carcinogen]: 1000 MG/KG BW DHPN IP 2X/3 WK, 1500 MG/KG BW EHEN IP 2X/3 WK, 75 MG/KG BW DMAB SC 3X/3 WK;, Dose [Carcinogen]: 1000 MG/KG BW DHPN IP 2X/3 WK, 1500 MG/KG BW EHEN IP 2X/3 WK, 75 MG/KG BW DMAB SC 3X/3 WK;, Promoter: NONE","7/14 (50%), 11/13 (85%), -70%, not significant"
same,"tumour outcome (control, treated, inhibition, significance)","Carcinogen: 2,2'-DIHYDROXY-DI-N-PROPYLNITROSAMINE [621-64-7], N-ETHYL-N-HYDROXYETHYLNIATROSAMINE [13147-25-6], 3,2'-DIMETHYL-4-AMINO, Carcinogen: 2,2'-DIHYDROXY-DI-N-PROPYLNITROSAMINE [621-64-7], N-ETHYL-N-HYDROXYETHYLNIATROSAMINE [13147-25-6], 3,2'-DIMETHYL-4-AMINO, Dose [Inhibitor]: 1% IN DIET FOR 32 WK BEGINNING 1 WK POST LAST CARCINOGEN DOSE (STUDY DURATION: 32 WK), Target Tissue: Type of Lesion: LUNG: CARCINOMA, Dose [Carcinogen]: 1000 MG/KG BW DHPN IP 2X/3 WK, 1500 MG/KG BW EHEN IP 2X/3 WK, 75 MG/KG BW DMAB SC 3X/3 WK;, Dose [Carcinogen]: 1000 MG/KG BW DHPN IP 2X/3 WK, 1500 MG/KG BW EHEN IP 2X/3 WK, 75 MG/KG BW DMAB SC 3X/3 WK;, Promoter: NONE","1/14 (8%), 7/13 (54%), -575%, p<0.05"
same,"tumour outcome (control, treated, inhibition, significance)","Carcinogen: 2,2'-DIHYDROXY-DI-N-PROPYLNITROSAMINE, 53609-64-6, N-ETHYL-N-HYDROXYETHYL- NITROSAMINE, 13147-25-6, 3,2'-DIMETHYL-4-, Carcinogen: 2,2'-DIHYDROXY-DI-N-PROPYLNITROSAMINE, 53609-64-6, N-ETHYL-N-HYDROXYETHYL- NITROSAMINE, 13147-25-6, 3,2'-DIMETHYL-4-, Dose [Inhibitor]: 0, 1% IN DIET BEGINNING 1 WK POST LAST CARCINOGEN DOSE AND CONTINUING FOR 32 WK (STUDY DURATION: 36 WK), Target Tissue: Type of Lesion: LARGE INTESTINE: ADENOMA, Dose [Carcinogen]: 1000 MG/KG IP DHPN 2X, 1500 MG/KG GAV EHEN 2X AND 75 MG/KG SC DMAB 3X GIVEN OVER THE INITIAL 3 WK PERIOD AT 3-4 D INTERV, Promoter: NONE USED","7/14 (50%), 5/13 (38%), 24%, not significant"
same,"tumour outcome (control, treated, inhibition, significance)","Carcinogen: 2,2'-DIHYDROXY-DI-N-PROPYLNITROSAMINE, 53609-64-6, N-ETHYL-N-HYDROXYETHYL- NITROSAMINE, 13147-25-6, 3,2'-DIMETHYL-4-, Carcinogen: 2,2'-DIHYDROXY-DI-N-PROPYLNITROSAMINE, 53609-64-6, N-ETHYL-N-HYDROXYETHYL- NITROSAMINE, 13147-25-6, 3,2'-DIMETHYL-4-, Dose [Inhibitor]: 0, 1% IN DIET BEGINNING 1 WK POST LAST CARCINOGEN DOSE AND CONTINUING FOR 32 WK (STUDY DURATION: 36 WK), Target Tissue: Type of Lesion: LARGE INTESTINE: CARCINOMA, Dose [Carcinogen]: 1000 MG/KG/ IP DHPN 2X, 1500 MG/KG GAV EHEN 2X 75 MG/KG SC DMAB 3X GIVEN OVER THE INITIAL 3 WK PERIOD AT 3-4 D INTERVALS, Promoter: NONE USED","3/14 (21%), 6/13 (46%), -119%, not calculated"
